The values below come from patent US11065253B2, “Arylquinazolines” (Merck Patent GmbH, priority 2013, dated 2021).

The test system of the first experiment is phospho-serine 2056 DNA-PK in HCT116 cells. The experiment can be described thus: DNA-PK phosphorylation at serine 2056 (cellular), ELISA in bleomycin-treated HCT116 cells. It is filed as cell-based. The note with it: Homo sapiens, HCT-116, 6 h, cellular; HCT116 cells, 10 μM bleomycin, six hours; read-out: IC50 pDNA-PK. The method, then:
HCT116 cells were cultivated at 37° C. and 10% CO2 in MEM alpha medium with 10% of foetal calf serum and 2 mM glutamine. The cells were detached from the base of the culture vessels with the aid of trypsin/EDTA, centrifuged off in centrifuge tubes, taken up in fresh medium, and the cell density was determined. 100,000 cells were sown in 1 ml of culture medium per cavity of a 24-well cell culture plate and cultivated overnight. Next day, 10 μM bleomycin (DNA intercalator and inductor of DNA double-strand breaks) and test substances in fresh culture medium were added to the cells, and these were cultivated for a further six hours. […] The 96-well ELISA plates were subsequently treated with a detection antibody (Abcam ab79444: total DNA-PK) and a streptavidin-HRP conjugate. The development of the enzymatic reaction was carried out with the aid of a chemiluminescent reagent, the chemiluminescence was measured with the aid of a Mithras LB940. The signals with the phospho-DNA-PK-specific antibody were standardised to the signal with the antibody against the total protein DNA-PKc. […] The DMSO control was used as blank.
A general note: ELISA stands for enzyme-linked immunosorbent assay.
The term IC50 denotes the midpoint of a concentration-inhibition curve. With `OC(c1ccc(F)c(-c2ncnc3cc(N4CCOCC4)ccc23)c1)c1cccnn1` (stereo not shown) [Example 65, [4-Fluoro-3-(7-morpholin-4-yl-quinazolin-4-yl)phenyl]-pyridazin-3-ylmethanol], the IC50 lay in the range of 500 to 5000 nM.

Turning to `COc1cnc(C(O)c2ccc(F)c(-c3ncnc4cc(N5CCOCC5)ccc34)c2)c(Cl)c1` (stereo not shown) [Example 31, (3-Chloro-5-methoxy-pyridin-2-yl)-[4-fluoro-3-(7-morpholin-4-yl-quinazolin-4-yl)phenyl]-methanol], the IC50 was below 500 nM.

`NC(=O)c1ccc(C(O)c2cc(-c3ncnc4cc(N5CCOCC5)ccc34)c(F)cc2Cl)nn1` (stereo not shown) [Example 62, 6-{[2-Chloro-4-fluoro-5-(7-morpholin-4-yl-quinazolin-4-yl)phenyl]-hydroxymethyl}-pyridazine-3-carboxylic acid amide]: the IC50 was in the range of 500 to 5000 nM.

On to `OC(c1ccnnc1)c1cc(-c2ncnc3cc(N4CCOCC4)ccc23)c(F)cc1Cl` (stereo not shown) [Example 36, [2-Chloro-4-fluoro-5-(7-morpholin-4-yl-quinazolin-4-yl)phenyl]-pyridazin-4-ylmethanol], for which the IC50 was below 500 nM.

Regarding `OC(c1ccc2nccn2n1)c1cc(-c2ncnc3cc(N4CCOCC4)ccc23)c(F)cc1Cl` (stereo not shown) [Example 56, [2-Chloro-4-fluoro-5-(7-morpholin-4-yl-quinazolin-4-yl)phenyl]-imidazo[1,2-b]pyridazin-6-ylmethanol], the IC50 was in the range of 500 to 5000 nM.

`COc1cc(Cl)nnc1C(O)c1cc(-c2ncnc3cc(N4CCOCC4)ccc23)c(F)cc1Cl` (stereo not shown) [Example 8, [2-Chloro-4-fluoro-5-(7-morpholin-4-yl-quinazolin-4-yl)phenyl]-(6-chloro-4-methoxy-pyridazin-3-yl)methanol]: the IC50 is 500 to 5000 nM.

In the case of `OC(c1ccc(F)c(-c2ncnc3cc(N4CCOCC4)ccc23)c1)c1nccnc1N1CCCC1` (stereo not shown) [Example 14, [4-Fluoro-3-(7-morpholin-4-yl-quinazolin-4-yl)phenyl]-(3-pyrrolidin-1-yl-pyrazin-2-yl)methanol], the IC50 is 500 to 5000 nM.

As to `COc1ccc([C@@H](O)c2ccc(F)c(-c3ncnc4cc(N5CCOCC5)ccc34)c2)nn1` [Example 72, (S)-[4-Fluoro-3-(7-morpholin-4-yl-quinazolin-4-yl)phenyl]-(6-methoxypyridazin-3-yl)methanol], the IC50 was 500 to 5000 nM.

On to `OC(c1cc(-c2ncnc3cc(N4CCOCC4)ccc23)ccc1Cl)c1ncnc2ccsc12` (stereo not shown) [Example 89, [2-Chloro-5-(7-morpholin-4-yl-quinazolin-4-yl)-phenyl]thieno[3,2-d}-pyrimidin-4-ylmethanol], for which the IC50 was below 500 nM.

As to `O=c1[nH]ccnc1C(O)c1ccc(F)c(-c2ncnc3cc(N4CCOCC4)ccc23)c1` (stereo not shown) [Example 5, 3-{[4-Fluoro-3-(7-morpholin-4-yl-quinazolin-4-yl)phenyl]-hydroxymethyl}-1H-pyrazin-2-one], the IC50 was 10000 to 30000 nM.

The same experiment, now with this note: Homo sapiens, HCT-116, cellular DNA-PK phosphorylation at serine 2056, HCT116 cells; read-out: IC50 pDNA-PK.
In the case of `COc1nccnc1C(O)c1cc(-c2ncnc3cc(N4CCOCC4)ccc23)ccc1F` (stereo not shown) [Example 394, [2-Fluoro-5-(7-morpholin-4-yl-quinazolin-4-yl)-phenyl]-(3-methoxy-pyrazin-2-yl)-methanol], the IC50 lay within 500 to 5000 nM.

Consider `OC(c1cc(-c2ncnc3cc(N4CCOCC4)ccc23)ccc1Cl)c1ncnc2ccoc12` (stereo not shown) [Example 414, [2-Chloro-5-(7-morpholin-4-yl-quinazolin-4-yl)-phenyl]furo[3,2-d}-pyrimidin-4-yl-methanol (Ena 2)], for which the IC50 is below 500 nM.

For the compound `Cc1cncnc1C(C(N)=O)c1cc(-c2ncnc3cc(N4CCOCC4)ccc23)ccc1Cl` (stereo not shown) [Example 377, 2-[2-Chloro-5-(7-morpholin-4-yl-quinazolin-4-yl)-phenyl]-2-(5-methyl-pyrimidin-4-yl)-acetamide (Ena 2)], the IC50 was in the range of 500 to 5000 nM.

On to `COc1ccc(C(O)c2cc(-c3ncnc4cc(N5CCOCC5)ccc34)ccc2Cl)nn1` (stereo not shown) [Example 458, [2-Chloro-5-(7-morpholin-4-yl-quinazolin-4-yl)-phenyl]-(6-methoxy-pyridazin-3-yl)-methanol], for which the IC50 is below 500 nM.

For `OC(c1cc(-c2ncnc3cc(N4CCOCC4)ccc23)ccc1F)c1ncnc2ccsc12` (stereo not shown) [Example 405, [2-Fluoro-5-(7-morpholin-4-yl-quinazolin-4-yl)-phenyl]thieno[3,2-d}-pyrimidin-4-yl-methanol], the IC50 is below 500 nM.

As to `COc1nccnc1C(O)c1cc(-c2ncnc3cc(N4CCOCC4)ccc23)c(F)cc1Cl` (stereo not shown) [Example 468, [2-Chloro-4-fluoro-5-(7-morpholin-4-yl-quinazolin-4-yl)-phenyl]-(3-methoxy-pyrazin-2-yl)-methanol], the IC50 was below 500 nM.

Consider `COc1cncnc1C(O)c1cc(-c2ncnc3cc(N4CCOCC4)ccc23)c(F)cc1Cl` (stereo not shown) [Example 447, [2-Chloro-4-fluoro-5-(7-morpholin-4-yl-quinazolin-4-yl)-phenyl]-(5-methoxy-pyrimidin-4-yl)-methanol], for which the IC50 lay within 500 to 5000 nM.

Consider `Cn1c(C(O)c2cc(-c3ncnc4cc(N5CCOCC5)ccc34)ccc2Cl)cccc1=O` (stereo not shown) [Example 400, 6-{[2-Chloro-5-(7-morpholin-4-yl-quinazolin-4-yl)-phenyl]hydroxy-methyl}-1-methyl-1H-pyridin-2-one], for which the IC50 was below 500 nM.

Turning to `Cn1cnc2c(C(O)c3ccc(F)c(-c4ncnc5cc(N6CCOCC6)ccc45)c3)ncnc21` (stereo not shown) [Example 420, [4-Fluoro-3-(7-morpholin-4-yl-quinazolin-4-yl)-phenyl]-(9-methyl-9H-purin-6-yl)-methanol], the IC50 is 5000 to 10000 nM.

Consider `Cn1cnc2c(C(O)c3cc(-c4ncnc5cc(N6CCOCC6)ccc45)ccc3F)ncnc21` (stereo not shown) [Example 370, [2-Fluoro-5-(7-morpholin-4-yl-quinazolin-4-yl)-phenyl]-(9-methyl-9H-purin-6-yl)-methanol], for which the IC50 lay in the range of 500 to 5000 nM.

Still in this experiment, the particulars now being: Homo sapiens, HCT-116, phospho-serine 2056 DNA-PK, bleomycin-treated HCT116 cells; class symbols A-D; read-out: IC50 pDNA-PK.
With `N#Cc1ccc(C(O)c2cc(-c3ncnc4cc(N5CCOCC5)ccc34)c(F)cc2Cl)nn1` (stereo not shown) [Example 118, 6-{[2-Chloro-4-fluoro-5-(7-morpholin-4-yl-quinazolin-4-yl)-phenyl]hydroxy-methyl}pyridazine-3-carbonitrile], the IC50 was 500 to 5000 nM.

Staying with this experiment, now noted: Homo sapiens, HCT-116, phospho-serine 2056 DNA-PK, bleomycin-treated HCT116 cells; read-out: IC50 pDNA-PK.
`[2H]c1c(N2CCOCC2)cc2ncnc(-c3cc(C(O)c4ccc(OC)nn4)c(Cl)cc3F)c2c1[2H]` (stereo not shown) [Example 225, [2-Chloro-5-(5,6-dideuterio-7-morpholino-quinazolin-4-yl)-4-fluorophenyl]-(6-methoxypyridazin-3-yl)methanol]: the IC50 is below 500 nM.

For the compound `Cc1nccnc1C(O)c1ccc(F)c(-c2ncnc3cc(N4CCOCC4)cnc23)c1` (stereo not shown) [Example 237, [4-Fluoro-3-(7-morpholin-4-yl-pyrido[3,2-d}-pyrimidin-4-yl)-phenyl]-(3-methyl-pyrazin-2-yl)-methanol], the IC50 was below 500 nM.

As to `Cc1cc(C(O)c2ccc(F)c(-c3ncnc4cc(N5CCOCC5)ccc34)c2)n(C)c(=O)c1` (stereo not shown) [Example 340, 6-{[4-Fluoro-3-(7-morpholin-4-yl-quinazolin-4-yl)-phenyl]hydroxy-methyl}-1,4-dimethyl-1H-pyridin-2-one], the IC50 lay in the range of 500 to 5000 nM.

Consider `OC(c1ccc(F)c(-c2ncnc3cc(N4CCOCC4)ccc23)c1)c1nncc2sccc12` (stereo not shown) [Example 333, [4-Fluoro-3-(7-morpholin-4-yl-quinazolin-4-yl)-phenyl]thieno[2,3-d}-pyridazin-4-yl-methanol], for which the IC50 is below 500 nM.

Regarding `OC(c1cc(-c2ncnc3cc(N4CCOCC4)ccc23)c(F)cc1F)c1nncc2ccsc12` (stereo not shown) [Example 342, [2,4-Difluoro-5-(7-morpholin-4-yl-quinazolin-4-yl)-phenyl]thieno[2,3-d}-pyridazin-7-yl-methanol], the IC50 is below 500 nM.

As for `Cn1nc(C(C(N)=O)c2cc(-c3ncnc4cc(N5CCOCC5)ccc34)c(F)cc2Cl)ccc1=O` (stereo not shown) [Example 311, 2-[2-Chloro-4-fluoro-5-(7-morpholin-4-yl-quinazolin-4-yl)-phenyl]-2-(1-methyl-6-oxo-1,6-dihydro-pyridazin-3-yl)-acetamide], the IC50 lay in the range of 10000 to 30000 nM.

For the compound `OC(c1cc(-c2ncnc3cc(N4CCOCC4)ccc23)ccc1Cl)c1ncnn2cccc12` (stereo not shown) [Example 362, [2-Chloro-5-(7-morpholin-4-yl-quinazolin-4-yl)-phenyl]pyrrolo[2,1-f]-[1,2,4]triazin-4-yl-methanol], the IC50 was in the range of 500 to 5000 nM.

Turning to `COc1nccnc1C(C(N)=O)c1cc(-c2ncnc3cc(N4CCOCC4)ccc23)ccc1Cl` (stereo not shown) [Example 304, 2-[2-Chloro-5-(7-morpholin-4-yl-quinazolin-4-yl)-phenyl]-2-(3-methoxy-pyrazin-2-yl)acetamide], the IC50 fell in the range of 5000 to 10000 nM.

Staying with this experiment, now noted: cellular DNA-PK phosphorylation at serine 2056, HCT116 cells; read-out: IC50 pDNA-PK.
For the compound `COc1nccnc1C(O)c1cc(-c2ncnc3cc(N4CCOCC4)ccc23)ccc1Cl` (stereo not shown) [Example 422, [2-Chloro-5-(7-morpholin-4-yl-quinazolin-4-yl)-phenyl]-(3-methoxy-pyrazin-2-yl)-methanol], the IC50 was in the range of 500 to 5000 nM.

The same experiment, now with this note: phospho-serine 2056 DNA-PK, bleomycin-treated HCT116 cells; read-out: IC50 pDNA-PK.
In the case of `COc1ccc(C(O)c2ccc(F)c(-c3ncnc4cc(N5CCOCC5)cc(F)c34)c2)nn1` (stereo not shown) [Example 260, [4-Fluoro-3-(5-fluoro-7-morpholin-4-yl-quinazolin-4-yl)-phenyl]-(6-methoxy-pyridazin-3-yl)-methanol], the IC50 was below 500 nM.
